Assay results: patent US20100317647A1 (priority 2009, published 2010)

Target: human Cat S (Homo sapiens, UniProt P25774)
Experiment: Cathepsin enzyme inhibition assay (fluorogenic peptide substrate cleavage)
Format: biochemical
Details: human Cat S 1 nM; substrate Z-Val-Val-Arg-AMC 20 μM; pH 6.5; fluorescence over 20 minutes
Summary of the method: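 Fluorogenic cleavage of Z-Val-Val-Arg-AMC (20 μM) by 1 nM enzyme in 100 mM potassium phosphate pH 6.5, 5 mM EDTA, 5 mM DTT, 0.001% Triton X-100. Reaction started with substrate; fluorescence (ex 360/em 465 nm) followed over 20 minutes. IC50 by standard methods.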

human Cat S, sequence (P25774 115-331): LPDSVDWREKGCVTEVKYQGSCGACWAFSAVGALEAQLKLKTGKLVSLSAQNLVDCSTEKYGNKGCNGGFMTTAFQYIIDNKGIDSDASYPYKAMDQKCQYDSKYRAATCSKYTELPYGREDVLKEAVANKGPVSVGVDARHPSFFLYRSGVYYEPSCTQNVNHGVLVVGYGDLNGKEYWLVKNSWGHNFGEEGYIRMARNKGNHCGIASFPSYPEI

Row | Structure (SMILES) | IC50
1 | CO[C@@H]1C[C@H](S(=O)(=O)c2ccc(-c3cncnc3)cc2C(F)(F)F)C[C@H]1C(=O)NC1(C#N)CC1 (racemic) [Example 82, (1R,2R,4R) and (1S,2S,4S)-2-Methoxy-4-(4-pyrimidin-5-yl-2-trifluoromethyl-benzenesulfonyl)-cyclopentanecarboxylic acid (1-cyano-cyclopropyl)-amide] | 0.6 nM
2 | C[C@H](Oc1ccc(S(=O)(=O)[C@@H]2C[C@@H](C(=O)NC3(C#N)CC3)[C@H](C(=O)N3CCC(F)(F)C3)C2)c(Cl)c1)C(F)(F)F [Example 190, (1R,2R,4R)-4-[2-Chloro-4-((S)-2,2,2-trifluoro-1-methyl-ethoxy)-benzenesulfonyl]-2-(3,3-difluoro-pyrrolidine-1-carbonyl)-cyclopentanecarboxylic acid (1-cyano-cyclopropyl)-amide] | 0.84 nM
3 | CO[C@@H]1C[C@H](S(=O)(=O)c2ccc(-c3ccccn3)cc2C(F)(F)F)C[C@H]1C(=O)NC1(C#N)CC1 (racemic) [Example 41, (1R,2R,4R) and (1S,2S,4S)-2-Methoxy-4-(4-pyridin-2-yl-2-trifluoromethyl-benzenesulfonyl)-cyclopentanecarboxylic acid (1-cyano-cyclopropyl)-amide] | 0.1 nM
4 | CO[C@@H]1C[C@H](S(=O)(=O)c2ccc(-c3cnn(C)c3)cc2C(F)(F)F)C[C@H]1C(=O)NC1(C#N)CCN(C)CC1 (racemic) [Example 236, (1R,2R,4R) and (1S,2S,4S)-2-Methoxy-4-[4-(1-methyl-1H-pyrazol-4-yl)-2-trifluoromethyl-benzenesulfonyl]-cyclopentanecarboxylic acid (4-cyano-1-methyl-piperidin-4-yl)-amide] | 1.8 nM
5 | CO[C@@H]1C[C@H](S(=O)(=O)c2ccc(N3CCOCC3)cc2C(F)(F)F)C[C@H]1C(=O)NC1(C#N)CC1 (racemic) [Example 176, (1R,2R,4R) and (1S,2S,4S)-2-Methoxy-4-(4-morpholin-4-yl-2-trifluoromethyl-benzenesulfonyl)-cyclopentanecarboxylic acid (1-cyano-cyclopropyl)-amide] | 1.47 nM
6 | CO[C@@H]1C[C@H](S(=O)(=O)c2ccc(N3CC(F)(F)C3)cc2C(F)(F)F)C[C@H]1C(=O)NC1(C#N)CC1 (racemic) [Example 206, (1R,2R,4R) and (1S,2S,4S)-4-[4-(3,3-Difluoro-azetidin-1-yl)-2-trifluoromethyl-benzenesulfonyl]-2-methoxy-cyclopentanecarboxylic acid (1-cyano-cyclopropyl)-amide] | 1.4 nM
7 | CO[C@@H]1C[C@H](S(=O)(=O)c2ccc(N3CCN(C(C)C)CC3)cc2C(F)(F)F)C[C@H]1C(=O)NC1(C#N)CC1 (racemic) [Example 177, (1R,2R,4R) and (1S,2S,4S)-4-[4-(4-Isopropyl-piperazin-1-yl)-2-trifluoromethyl-benzenesulfonyl]-2-methoxy-cyclopentanecarboxylic acid (1-cyano-cyclopropyl)-amide] | 0.923 nM
8 | Cc1cc(Cl)ccc1S(=O)(=O)[C@@H]1C[C@@H](C(=O)NCC#N)[C@H](C(=O)N2CCN(C)CC2)C1 [Example 33, (1R,2R,4R)-4-(4-Chloro-2-methyl-benzenesulfonyl)-2-(4-methyl-piperazine-1-carbonyl)-cyclopentanecarboxylic acid cyanomethyl-amide] | 1.6 nM
9 | N#CC1(NC(=O)[C@@H]2C[C@@H](S(=O)(=O)c3ccccc3)C[C@H]2C(=O)N2CCS(=O)(=O)CC2)CC1 [Example 20, (1R,2R,4R)-4-Benzenesulfonyl-2-(1,1-dioxo-1-thiomorpholine-4-carbonyl)-cyclopentanecarboxylic acid (1-cyano-cyclopropyl)-amide] | 4.3 nM
10 | N#CC1(NC(=O)[C@@H]2C[C@@H](S(=O)(=O)c3ccccc3)C[C@H]2C(=O)Nc2ccc(F)cc2)CC1 [Example 42, (1R,2R,4S)-4-Benzenesulfonyl-cyclopentane-1,2-dicarboxylic acid 1-[(1-cyano-cyclopropyl)-amide]2-[(4-fluoro-phenyl)-amide]] | 25.5 nM
